In ChEMBL document CHEMBL5584234, “Small molecules that regulate the N6-methyladenosine RNA modification as potential anti-cancer agents” (Eur J Med Chem, 2024):
Counter-ions that a name gives are not always drawn. Blank lines part the entries; values can stand above or below the compound they belong to.

Columns and labels:
OCI-AML2 = experiment: cells; details: Homo sapiens
[1] = biological target: T1, Alpha-ketoglutarate-dependent dioxygenase FTO (Homo sapiens, UniProt Q9C0B1)
METTL3/METTL14 [2] = biological target: T2, METTL3/METTL14 (Homo sapiens, UniProt Q86U44)
Huh-7 = experiment: cells; details: Homo sapiens
[3] = biological target: YTH domain-containing protein 1 (Homo sapiens, UniProt Q96MU7)
METTL3/METTL14 [4] = biological target: T2, METTL3/METTL14; remark: listed apart in the source
RNA demethylase ALKBH5 = RNA demethylase ALKBH5 (Homo sapiens, UniProt Q6P6C2)
[5] = biological target: T3, N6-adenosine-methyltransferase catalytic subunit (Homo sapiens, UniProt Q86U44)
[6] = biological target: T1, Alpha-ketoglutarate-dependent dioxygenase FTO; remark: listed apart in the source
[7] = biological target: T1, Alpha-ketoglutarate-dependent dioxygenase FTO; remark: listed apart in the source
[8] = biological target: N(6)-adenosine-methyltransferase catalytic subunit METTL3 (Mus musculus, UniProt Q8C3P7)
[9] = biological target: T3, N6-adenosine-methyltransferase catalytic subunit; remark: listed apart in the source
[10] = biological target: T3, N6-adenosine-methyltransferase catalytic subunit; remark: listed apart in the source
METTL3/METTL14 [11] = biological target: T2, METTL3/METTL14; remark: listed apart in the source
[12] = biological target: T3, N6-adenosine-methyltransferase catalytic subunit; remark: listed apart in the source
cells = details: Homo sapiens, AML1
HeLa = experiment: cells; details: Homo sapiens, 24 h
ECa-109 cell line = experiment: cells; details: Homo sapiens, ECa-109, 72 h

SMILES: C(=N\NC1=NCCN1)/c1c2ccccc2c(/C=N/NC2=NCCN2)c2ccccc12 [BISANTRENE]
IC50 (OCI-AML2): 100 nM

SMILES: Nc1ncnc2c1ncn2[C@@H]1O[C@H](C[C@@H](N)CC[C@H](N)C(=O)O)[C@@H](O)[C@H]1O [SINEFUNGIN]
IC50 (METTL3/METTL14 [2]): 1300 nM | GI50 (Huh-7): 24800 nM

SMILES: O=c1c2ccccc2[se]n1-c1ccccc1 [EBSELEN]
IC50 [3]: 1600 nM

SMILES: CCCc1c(C)nc2c3ccccc3oc(=S)n12
IC50 (RNA demethylase ALKBH5): 10000 nM

SMILES: Cc1ccc(Cl)c(Nc2ccccc2C(=O)O)c1Cl [MECLOFENAMIC ACID]
IC50 [5]: 8000 nM

SMILES: Cc1c(-c2ccc(-c3ccccc3F)cc2)nc2ccc(F)cc2c1C(=O)O [BREQUINAR]
IC50 (OCI-AML2): 200 nM

SMILES: O=C(NCc1cn2cc(CNCC3CCCCC3)ccc2n1)c1cc(=O)n2ccccc2n1
IC50 [8]: 2810 nM | GI50 (Huh-7): 600 nM

SMILES: Cn1ccc(-c2cn([C@@H]3O[C@H](COc4ccc5ccc(N6CCC6)nc5c4)[C@@H](O)[C@@H]3F)c3ncnc(N)c23)n1
IC50 [9]: < 10 nM | IC50 [10]: < 1000 nM | IC50 [5]: < 10 nM | GI50 (Huh-7): < 1000 nM

SMILES: COc1cc(-c2cn(Cc3cn4cc(CNCC5CCC5)ccc4n3)nn2)c2cn[nH]c2c1
IC50 (METTL3/METTL14 [4]): < 5 nM | GI50 (Huh-7): 160 nM

SMILES: Clc1cc(-c2cn(Cc3cn4cc(CNCC5CCC5)ccc4n3)nn2)c2cn[nH]c2c1
IC50 (METTL3/METTL14 [4]): < 5 nM | IC50 (METTL3/METTL14 [11]): 25 nM | GI50 (Huh-7): 210 nM

SMILES: O=C(O)c1ccccc1OCCc1cn(-c2ccc(-c3c(Cl)cccc3Cl)cc2)c2ccc(-c3ccc(F)cc3)cc12
IC50 [12]: 4000 nM | IC50 [9]: 2810 nM | IC50 [10]: 4000 nM | GI50 (Huh-7): 14600 nM

SMILES: Nc1ncnc2c1ncn2[C@@H]1O[C@H](CSCC[C@H](N)C(=O)O)[C@@H](O)[C@H]1O [S-ADENOSYLHOMOCYSTEINE]
IC50 (METTL3/METTL14 [2]): 520 nM

SMILES: Cc1noc(C)c1-c1cc(Cl)c(Nc2ccccc2C(=O)NO)c(Cl)c1
GI50 (cells): 800 nM

SMILES: Cc1noc(C)c1-c1cc(Cl)c(Nc2ccccc2C(=O)O)c(Cl)c1
GI50 (cells): 23000 nM

SMILES: COc1c(C)cnc(Cn2cc(CNC(=O)c3c(F)c(F)c(F)c(F)c3F)nn2)c1C
IC50 (ECa-109 cell line): 830 nM

SMILES: O=C(O)[C@H]1O[C@@H](Oc2cc3oc(-c4ccc(O)cc4)cc(=O)c3c(O)c2O)[C@H](O)[C@@H](O)[C@@H]1O [SCUTELLARIN]
IC50 (METTL3/METTL14 [4]): 19900 nM

Now from value to compound:

IC50 [1]: 3400 nM
SMILES: COc1ncc(-c2ccc3sc(N)nc3c2)cn1

IC50 (METTL3/METTL14 [4]): 8 nM
SMILES: CC1(C)CCN(Cc2ccc3nc(Cn4cc(-c5cc(Br)cc6[nH]ncc56)nn4)cn3c2)CC1

IC50 [6]: 640 nM
SMILES: O=C(O)c1ccccc1-c1c2cc(Cl)c(=O)cc-2oc2cc(O)c(Cl)cc12

IC50 [7]: 1500 nM
SMILES: CC(=O)Oc1cccc2c1C(=O)c1c(OC(C)=O)cc(C(=O)O)cc1C2=O [DIACEREIN]

IC50 (HeLa): 8700 nM
SMILES: CCS(=O)(=O)Nc1oc(-c2ccc(Cl)cc2)c(O)c1O

IC50 [9]: < 10 nM | IC50 [10]: < 1000 nM | IC50 [5]: < 10 nM | GI50 (Huh-7): < 1000 nM
SMILES: CCc1cc(N(C)CCOC)c2ccc(CCc3cncc(-n4cc(-c5ccn(C)n5)c5c(N)ncnc54)c3)cc2n1

IC50 [5]: 7000 nM
SMILES: CCOC(=O)c1ccccc1Nc1c(Cl)ccc(C)c1Cl

IC50 [7]: 1500 nM
SMILES: Nc1ncnc2c1ncn2[C@@H]1O[C@H](C(=O)NCCCNC(=O)c2ccccn2)[C@@H](O)[C@H]1O

IC50 [1]: 133000 nM
SMILES: O=C(O)CC[C@@H](O)C(=O)O

IC50 [7]: 13800 nM
SMILES: N=C(N)c1ccc2cc(OC(=O)c3ccc(N=C(N)N)cc3)ccc2c1 [NAFAMOSTAT MESYLATE]
